One compound from patent US9695155B2, “Herbicidal substituted pyrimidinyloxy benzene compounds” (E. I. DU PONT DE NEMOURS AND COMPANY, priority 2013, dated 2017) can be followed below.

In one experiment the test system is field poppy. Nature of the experiment: Test D postemergence. To be noted: Papaver rhoeas, post-emergence, scale 0 to 100 (0 no effect, 100 complete control), read-out: Plant response rating, Field Poppy. It is filed as in vivo, Papaver rhoeas. In outline: (§1)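 Species were sown in silt loam for preemergence treatment, or grown in peat-based medium to the 1–4-leaf stage (2–18 cm) for postemergence sprays. Test chemicals were formulated in a non-phytotoxic solvent mixture with surfactant. After 7–21 days in a controlled environment, plants were rated visually against controls on a 0 (no effect) to 100 (complete control) scale.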

The test system of the next experiment is lambsquarters. The experiment can be described thus: Test D postemergence. It is filed as in vivo, Chenopodium album. To be noted: Chenopodium album, post-emergence, scale 0 to 100 (0 no effect, 100 complete control), read-out: Plant response rating, Lambsquarters. In outline:
as §1

A further experiment concerns pigweed. The experiment can be described thus: Test D preemergence. It is filed as in vivo, Amaranthus retroflexus. The settings on record: Amaranthus retroflexus, pre-emergence. In outline: as §1
Another experiment concerns field violet. The experiment can be described thus: Test D preemergence. To be noted: Viola arvensis, pre-emergence, scale 0-100, read-out: Plant response rating, Field Violet. The experiment is classed as in vivo, Viola arvensis. In outline: as §1
The test system of another experiment is cocklebur. Nature of the experiment: Test E preemergence. The experiment is classed as in vivo, Xanthium strumarium. To be noted: for Cocklebur plant response rating: scale 0 to 100 (0 no effect, 100 complete control). From the text: Seeds of plant species selected from corn (Zea mays), soybean (Glycine max), velvetleaf (Abutilon theophrasti), lambsquarters (Chenopodium album), wild poinsettia (Euphorbia heterophylla), palmer pigweed (Amaranthus palmeri), waterhemp (common waterhemp, Amaranthus rudis), surinam grass (Brachiaria decumbens), large (Lg) crabgrass (Digitaria sanguinalis), Brazilian crabgrass (Digitaria horizontalis), fall panicum (Panicum dichotomiflorum), giant foxtail (Setaria faberii), green foxtail (Setaria viridis), goosegrass (Eleusine indica), johnsongrass (Sorghum halepense), ragweed (common ragweed, Ambrosia elatior), barnyardgrass (Echinochloa crus-galli), sandbur (southern sandbur, Cenchrus echinatus), arrowleaf sida (Sida rhombifolia), Italian ryegrass (Lolium multiflorum), dayflower (Virginia (VA) dayflower, Commelina virginica), field bindweed (Convolvulus arvensis), morningglory (Ipomoea coccinea), nightshade (eastern black nightshade, Solanum ptycanthum), kochia (Kochia scoparia), yellow nutsedge (Cyperus esculentus), cocklebur (common cocklebur, Xanthium strumarium), smartweed (ladysthumb smartweed, and hairy beggarticks (Bidens pilosa), were planted into a silt loam soil and treated preemergence with test chemicals formulated in a non-phytotoxic solvent mixture which included a surfactant.
At the same time, plants from these crop and weed species and also horseweed (Canada horseweed, Conyza canadensis), waterhemp_RES1, (ALS & Triazine resistant common waterhemp, Amaranthus rudis), and waterhemp_RES2, (ALS & HPPD resistant common waterhemp, Amaranthus rudis) were planted in pots containing Redi-Earth® planting medium (Scotts Company, 14111 Scottslawn Road, Marysville, Ohio 43041) comprising spaghnum peat moss, vermiculite, wetting agent and starter nutrients were treated with postemergence applications of test chemicals formulated in the same manner. Plants ranged in height from 2 to 18 cm for postemergence treatments (1- to 4-leaf stage). Treated plants and controls were maintained in a greenhouse for 14 to 21 days, after which time all species were compared to controls and visually evaluated. Plant response ratings, summarized in Table E, are based on a scale of 0 to 100 where 0 is no effect and 100 is complete control. A dash (-) response means no test result.

A further experiment deals with deadnettle. Nature of the experiment: Test D preemergence. To be noted: Lamium amplexicaule, pre-emergence, scale 0-100, read-out: Plant response rating, Deadnettle. The experiment is classed as in vivo, Lamium amplexicaule. The essentials:
as §1

Structures are written as SMILES.

As for `N#Cc1cccc(Oc2ncc(Cl)cn2)c1-n1cc(Br)cn1` [Compound 52, 2-(4-bromo-1H-pyrazol-1-yl)-3-[(5-chloro-2-pyrimidinyl)oxy]benzonitrile], the pest or weed control at 31 g/ha was determined as 60% in the experiment with field poppy (31 g ai/ha); 80% in the experiment on lambsquarters (31 g ai/ha); 100% in the experiment on pigweed (31 g ai/ha, scale 0 (no effect) to 100 (complete control), read-out: Plant response rating, Pigweed); 75% with field violet (31 g ai/ha); 70% with deadnettle (31 g ai/ha). Further, the pest or weed control at 62 g/ha in the experiment on field poppy (62 g ai/ha) stood at 75%; in the experiment on lambsquarters (62 g ai/ha) it was 75%; with pigweed (62 g ai/ha, scale 0-100, read-out: Plant response rating, Pigweed), 100%; with field violet (62 g ai/ha) it was 95%; with deadnettle (62 g ai/ha) it was 75%. In addition, the pest or weed control at 125 g/ha in the experiment on field poppy (125 g ai/ha) is 80%; in the experiment with lambsquarters (125 g ai/ha), 75%; in the experiment with pigweed (125 g ai/ha, scale 0-100, read-out: Plant response rating, Pigweed) it was 100%; in the experiment with field violet (125 g ai/ha), 100%; in the experiment with deadnettle (125 g ai/ha) it was 100%. Besides, the pest or weed control at 250 g/ha with field poppy (250 g ai/ha) turned out to be 100%; in the experiment on lambsquarters (250 g ai/ha), 95%; in the experiment with pigweed (250 g ai/ha, scale 0-100, read-out: Plant response rating, Pigweed) it was 100%; in the experiment on field violet (250 g ai/ha), 100%; with deadnettle (250 g ai/ha) it was 100%. Also, the “Cocklebur plant response rating” value with cocklebur (16 g ai/ha), with cocklebur (31 g ai/ha) and in the experiment with cocklebur (62 g ai/ha) was 0 each time. Moreover, in the experiment with cocklebur (250 g ai/ha, scale 0 to 100, 0 no effect, 100 complete control), the “Plant response rating, Cocklebur” value worked out at 25.
